For assay [1], the target named is T1, OSC (Homo sapiens, UniProt P48449).
T1 sequence (P48449 1-732): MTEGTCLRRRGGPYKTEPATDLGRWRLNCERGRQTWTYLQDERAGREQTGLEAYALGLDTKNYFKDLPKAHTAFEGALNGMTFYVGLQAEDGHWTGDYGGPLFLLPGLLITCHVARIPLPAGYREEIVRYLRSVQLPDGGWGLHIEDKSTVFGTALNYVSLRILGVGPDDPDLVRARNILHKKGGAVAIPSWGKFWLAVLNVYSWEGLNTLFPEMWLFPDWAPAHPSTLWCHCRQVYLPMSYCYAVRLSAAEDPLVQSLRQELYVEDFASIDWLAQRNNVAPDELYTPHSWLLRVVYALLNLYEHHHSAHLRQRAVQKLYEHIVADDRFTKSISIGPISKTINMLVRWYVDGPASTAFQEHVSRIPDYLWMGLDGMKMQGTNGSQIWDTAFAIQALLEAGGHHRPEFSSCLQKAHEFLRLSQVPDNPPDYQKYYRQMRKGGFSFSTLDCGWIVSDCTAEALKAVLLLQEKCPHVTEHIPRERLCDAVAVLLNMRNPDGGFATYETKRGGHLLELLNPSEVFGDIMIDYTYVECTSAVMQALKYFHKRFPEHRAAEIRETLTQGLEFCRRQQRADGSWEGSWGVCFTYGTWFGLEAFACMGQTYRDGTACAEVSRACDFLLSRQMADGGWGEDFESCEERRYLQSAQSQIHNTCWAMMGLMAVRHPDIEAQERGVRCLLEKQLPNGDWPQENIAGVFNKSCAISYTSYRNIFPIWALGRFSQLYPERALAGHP
The conditions noted are these: value in parentheses not explained in the patent; cited from earlier work.

Assay [2] relates to BT-474 breast cancer cells. The assay can be described thus: SRB cell viability assay, BT-474. The following applies: BT-474, 24 hours, dose-dependent, FIG. 2A. The format is cell-based, human. As for the experimental part: (§1) The sulforhodamine B (SRB) assay was employed to evaluate the effect of OSC inhibitor Ro 48-8071 on viability of breast cancer and normal mammary gland cells with slight modification of the original procedure established at NCI. Accordingly, the cells were seeded in 96-well plates in 100 μl culture medium and incubated overnight at 37° C. with 5% CO2. […] The surviving or adherent cells were fixed in situ by withdrawing the growth medium and adding 100 μl of PBS and 100 μl of 50% cold trichloroacetic acid and then incubating at 4° C. for 1 h. The surviving cells were washed with ice-water, dried at room temperature (RT), and then stained with 50 μl 4% SRB for 8 min at RT. Unbound dye was removed by washing 5 times with cold 1% acetic acid, and the plates were dried at RT. Bound stain was solubilized with 150 μl 10 mM Tris buffer, and absorbance of samples were measured at 520 nm with a SpecTRA MAX 190 microplate reader (Sunnyvale, Calif.). In these experiments on BT-474, T47-D, and AG11132A cell lines, six wells were used for each concentration, and each experiment was performed at least twice.
(§2) The effect of OSC inhibition was evaluated in additional cancer cell lines as well. Cancer cell lines may be purchased from ATCC (Manassas, Va.). The SRB assay has been employed for determination of the inhibitory effects of RO 48-8071 on growth of different cancer cells. Cells were seeded into 96-well plates and incubated overnight at 37° C. with 5% CO2. The culture medium was removed after 24 hours, and cells were washed with DMEM/F12 medium and then treated with various concentrations of RO 48-8071 in 5% FBS culture medium for 24 and 48 hours. Surviving or adherent cells were fixed in situ by withdrawing the growth medium, adding 100 μl PBS and 100 μl 50% trichloroacetic acid and then incubating at 4° C. for one hour. Cells were washed with ice-cold water, dried at room temperature (RT), and then stained with 50 μl 4% SRB for eight minutes at RT. Unbound dye was removed by washing with cold 1% acetic acid for five times, and plates were dried at RT. Bound stain was solubilized with 150 μl 10 mM Tris buffer and absorbance of samples was read at 520 nm with a SpecTRA MAX 190 microplate reader (Molecular Devices, Sunnyvale, Calif.). Six wells were used for each concentration, and each experiment was performed two to three times.
Effect of RO 48-8071 on breast cancer cell line BT-474 viability. […] The culture mediums employed 10% FBS DMEM/F12 for culture and 5% FBS DMEM/F12 for treatment.

The subject of assay [3] is T47-D breast cancer cells. Put plainly: SRB cell viability assay, T47-D. The conditions noted are these: 24 hours, dose-dependent, FIG. 2B. The format is cell-based. As for the experimental part:
as §1, §2
Effect of RO 48-8071 on breast cancer cell line T47-D viability. […] The culture mediums employed 10% FBS DMEM/F12 for culture and 5% FBS DMEM/F12 for treatment.

In general, IC50 refers to the point on the concentration scale where inhibition reaches its midpoint.

Regarding `CN(CCCCOc1ccc(C(=O)c2ccc(Br)cc2)cc1)C1CC1`, in assay [1], the IC50 was 19 nM.
`C=CCC(C)CCCCCCOc1ccc2c(-c3ccc(Br)cc3)nn(C)c2c1` (stereo not shown): in assay [1], the IC50 was 19.6 nM.
`O=C(c1ccc(Cl)cc1)N1CCC(Cc2ccc(C3=NCCO3)cc2)CC1`: in assay [1], the IC50 is 36 nM.
`O=C1C2CCN(CC2)C1(CO)CO` [PRIMA-1, 2,2-bis(hydroxymethyl)-3-quinuclidinone]: the “effect on cell viability (SRB)” value in assay [2] and in assay [3] was “significantly inhibit the viability” each time.
Consider `CCN(CC)CCO[C@H]1CC[C@@]2(C)C(=CC[C@@H]3[C@@H]2CC[C@]2(C)C(=O)CC[C@@H]32)C1` [U18666A, 3-beta-(2-(diethylamino)ethoxy)androst-5-en-17-one], for which the “effect on cell viability (SRB)” value in assay [2] and in assay [3] was “significantly inhibit the viability” each time.

The values are drawn from patent publication US10143686B2, “Oxidosqualene cyclase as a protein target for anticancer therapeutics” (The Curators of the University of Missouri, priority 2010, dated 2018).
